Key:
PPARδ = target: T1, PPARδ (Mus musculus, UniProt P35396); settings: mice, cited from earlier work
T1 construct: host or cells: mice (skeletal muscle), in vivo
T1 sequence (P35396 1-440): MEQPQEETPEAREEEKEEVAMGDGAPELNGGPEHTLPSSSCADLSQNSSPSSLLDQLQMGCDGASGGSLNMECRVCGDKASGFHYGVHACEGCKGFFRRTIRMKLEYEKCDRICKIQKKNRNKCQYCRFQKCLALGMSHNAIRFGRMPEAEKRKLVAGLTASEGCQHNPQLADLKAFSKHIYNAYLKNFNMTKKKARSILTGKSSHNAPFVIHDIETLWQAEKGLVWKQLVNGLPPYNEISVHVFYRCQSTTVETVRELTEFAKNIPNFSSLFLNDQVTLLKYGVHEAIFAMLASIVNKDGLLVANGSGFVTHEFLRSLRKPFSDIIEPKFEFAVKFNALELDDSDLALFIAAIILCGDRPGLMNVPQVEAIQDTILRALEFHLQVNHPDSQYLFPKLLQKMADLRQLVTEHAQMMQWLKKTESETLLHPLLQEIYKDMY

PPARα = target: T2, PPARα (Homo sapiens, UniProt Q07869); assay: PPAR agonist activity in human cell lines expressing PPAR isotypes; assay type: cell-based
T2 sequence (Q07869 1-468): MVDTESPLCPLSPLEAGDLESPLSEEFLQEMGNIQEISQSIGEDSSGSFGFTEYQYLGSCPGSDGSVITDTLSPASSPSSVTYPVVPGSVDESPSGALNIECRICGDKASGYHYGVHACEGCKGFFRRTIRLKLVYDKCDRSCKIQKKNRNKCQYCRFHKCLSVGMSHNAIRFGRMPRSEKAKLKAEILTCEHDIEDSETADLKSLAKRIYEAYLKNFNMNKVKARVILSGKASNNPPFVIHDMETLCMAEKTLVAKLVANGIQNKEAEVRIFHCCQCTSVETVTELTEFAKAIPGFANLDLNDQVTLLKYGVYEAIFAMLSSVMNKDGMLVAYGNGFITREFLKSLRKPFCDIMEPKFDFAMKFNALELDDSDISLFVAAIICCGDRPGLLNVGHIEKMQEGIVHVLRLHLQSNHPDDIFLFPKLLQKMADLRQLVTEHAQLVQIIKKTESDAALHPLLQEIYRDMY
Experimental: (§1) Compound I is a PPARδ agonist that is useful in the methods of treatment described herein. In human cell lines expressing all three peroxisome proliferator-activated receptor (PPAR) isotypes, Compound I is a potent (EC50<100 nM) and selective human PPARδ agonist, with minor activity on PPARα (EC50>10 μM) and PPARγ (EC50>10 μM).

PPARγ = target: T3, PPARγ (Homo sapiens, UniProt P37231); assay: as above; assay type: cell-based
T3 sequence (P37231 1-505): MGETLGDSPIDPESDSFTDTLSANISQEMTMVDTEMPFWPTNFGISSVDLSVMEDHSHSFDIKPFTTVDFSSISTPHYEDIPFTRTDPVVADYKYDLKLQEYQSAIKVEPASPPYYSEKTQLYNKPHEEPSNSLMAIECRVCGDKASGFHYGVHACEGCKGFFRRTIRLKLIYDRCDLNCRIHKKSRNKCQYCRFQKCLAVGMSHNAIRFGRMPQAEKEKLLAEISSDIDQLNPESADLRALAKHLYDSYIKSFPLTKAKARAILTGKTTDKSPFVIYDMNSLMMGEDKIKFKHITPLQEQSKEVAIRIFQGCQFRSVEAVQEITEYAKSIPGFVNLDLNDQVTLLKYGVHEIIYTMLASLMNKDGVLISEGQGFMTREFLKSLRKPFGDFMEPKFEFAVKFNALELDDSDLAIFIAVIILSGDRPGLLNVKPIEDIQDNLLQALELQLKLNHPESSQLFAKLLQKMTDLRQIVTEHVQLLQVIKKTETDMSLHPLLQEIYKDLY
Experimental: as §1

human PPARδ = target: T4, human PPARδ (Homo sapiens, UniProt Q03181); assay: as above; assay type: cell-based
T4 sequence (Q03181 1-441): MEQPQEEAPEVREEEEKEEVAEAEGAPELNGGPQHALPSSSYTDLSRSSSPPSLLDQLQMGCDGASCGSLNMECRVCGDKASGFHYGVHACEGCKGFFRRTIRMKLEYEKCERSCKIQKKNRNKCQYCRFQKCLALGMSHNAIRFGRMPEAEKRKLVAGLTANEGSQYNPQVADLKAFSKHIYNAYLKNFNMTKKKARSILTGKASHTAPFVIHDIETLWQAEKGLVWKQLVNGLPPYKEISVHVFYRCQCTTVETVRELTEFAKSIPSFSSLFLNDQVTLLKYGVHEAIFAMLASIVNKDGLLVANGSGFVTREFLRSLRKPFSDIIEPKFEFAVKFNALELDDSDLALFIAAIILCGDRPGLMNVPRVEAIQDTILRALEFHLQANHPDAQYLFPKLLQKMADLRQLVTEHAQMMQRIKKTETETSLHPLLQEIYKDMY
Experimental: as §1

RXR = assay: Activation of human cells expressing nuclear receptors; assay type: cell-based
FXR = target: T5, FXR (Homo sapiens, UniProt Q96RI1); assay: as above; assay type: cell-based
T5 sequence (Q96RI1 1-486): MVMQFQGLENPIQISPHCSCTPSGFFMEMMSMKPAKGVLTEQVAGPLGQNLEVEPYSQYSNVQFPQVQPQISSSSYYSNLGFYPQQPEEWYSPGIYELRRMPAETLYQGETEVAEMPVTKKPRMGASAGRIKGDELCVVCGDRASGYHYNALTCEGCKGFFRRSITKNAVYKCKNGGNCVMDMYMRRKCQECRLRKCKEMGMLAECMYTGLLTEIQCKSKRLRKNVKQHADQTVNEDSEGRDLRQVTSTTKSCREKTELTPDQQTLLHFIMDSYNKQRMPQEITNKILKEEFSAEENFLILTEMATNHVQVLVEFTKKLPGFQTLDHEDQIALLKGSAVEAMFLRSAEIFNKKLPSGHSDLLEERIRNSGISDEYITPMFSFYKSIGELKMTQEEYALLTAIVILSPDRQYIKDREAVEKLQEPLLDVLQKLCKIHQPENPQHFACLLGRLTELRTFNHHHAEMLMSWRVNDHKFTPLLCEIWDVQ

LXRα = target: T6, LXRα (Homo sapiens, UniProt Q13133); assay: as above; assay type: cell-based
T6 sequence (Q13133 1-447): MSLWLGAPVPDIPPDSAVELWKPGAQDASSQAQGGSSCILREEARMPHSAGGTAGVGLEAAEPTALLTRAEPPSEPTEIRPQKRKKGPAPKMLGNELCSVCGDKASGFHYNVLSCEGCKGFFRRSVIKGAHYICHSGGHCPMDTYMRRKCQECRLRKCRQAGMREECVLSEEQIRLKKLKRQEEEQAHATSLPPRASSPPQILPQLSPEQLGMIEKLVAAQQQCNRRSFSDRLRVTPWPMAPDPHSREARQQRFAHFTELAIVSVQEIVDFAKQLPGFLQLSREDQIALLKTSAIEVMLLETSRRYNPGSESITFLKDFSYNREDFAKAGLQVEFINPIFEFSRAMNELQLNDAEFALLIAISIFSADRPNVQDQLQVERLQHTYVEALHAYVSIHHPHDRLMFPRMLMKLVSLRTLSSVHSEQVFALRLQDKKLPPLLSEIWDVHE

LXRβ = target: T7, LXRβ (Homo sapiens, UniProt P55055); assay: as above; assay type: cell-based
T7 sequence (P55055 1-460): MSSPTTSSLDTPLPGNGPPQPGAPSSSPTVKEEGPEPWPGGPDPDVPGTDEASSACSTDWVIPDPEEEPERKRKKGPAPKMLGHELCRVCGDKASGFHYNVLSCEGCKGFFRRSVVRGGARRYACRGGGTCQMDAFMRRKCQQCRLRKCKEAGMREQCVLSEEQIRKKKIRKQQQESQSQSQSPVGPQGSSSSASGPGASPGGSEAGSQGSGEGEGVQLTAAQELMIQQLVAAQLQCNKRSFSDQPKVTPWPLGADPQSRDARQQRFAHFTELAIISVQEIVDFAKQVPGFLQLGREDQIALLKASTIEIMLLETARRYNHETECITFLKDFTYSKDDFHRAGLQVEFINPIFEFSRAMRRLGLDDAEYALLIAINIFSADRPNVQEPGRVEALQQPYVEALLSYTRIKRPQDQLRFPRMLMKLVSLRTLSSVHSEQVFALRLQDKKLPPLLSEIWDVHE

[1] = system: PPARδ regulated genes (CPT1b, PGC-1α); assay: In vivo expression of PPARδ regulated genes in mice muscle
[2] = system: Angiopoietin-like 4 (ANGPTL4); assay: In vivo expression of PPAR regulated target gene in rat muscle
[3] = Clinical studies, safety and tolerability; assay type: in vivo, human
[4] = in combination with exercise, 4 weeks
[5] = human cell lines expressing all three PPAR isotypes

Cc1cc(SCc2sc(-c3ccc(C(F)(F)F)cc3)nc2C)ccc1OCC(=O)O [GW1516]
energy substrate usage (PPARδ; 8 weeks): clear shift in energy substrate usage from glucose to fatty acid oxidation
muscle fibers, mitochondrial biogenesis (PPARδ; [4]): synergistically induced fatigue-resistant oxidative muscle fibers and mitochondrial biogenesis
physical performance (PPARδ; [4]): enhanced physical performance

Cc1cc(OC/C=C(/c2ccc(F)cc2)c2ccc(C#CCN3CCOCC3)cc2)ccc1OCC(=O)O [Compound I, (E)-2-(4-((3-(4-fluorophenyl)-3-(4-(3-morpholinoprop-1-yn-1-yl)phenyl)allyl)oxy)-2-methylphenoxy)acetic acid]
selectivity for PPARδ over PPARα (PPARα): 100 fold
type of agonism on PPARα (PPARα): only partial agonist activity
EC50 (PPARα; [5]): > 10 µM
selectivity for PPARδ over PPARγ (PPARγ): 400 fold
type of agonism on PPARγ (PPARγ): only partial agonist activity
EC50 (PPARγ; [5]): > 10 µM
type of agonism on PPARδ (human PPARδ): full PPARδ agonist
EC50 (human PPARδ; [5]): < 0.1 µM
activation of human cells expressing RXR (RXR): did not result in activation
activation of human cells expressing FXR (FXR): did not result in activation
activation of human cells expressing LXRα (LXRα): did not result in activation
activation of human cells expressing LXRβ (LXRβ): did not result in activation
expression of PPARδ regulated genes CPT1b (beta-oxidation of long chain fatty acids) and PGC-1α (mitochondrial biogenesis) [1]: altered the expression patterns
expression of ANGPTL4 [2]: increased the expression
incidence of adverse events (AEs) versus placebo [3]: similar
serious adverse events (SAEs) [3]: No serious adverse events (SAEs) were reported
safety and tolerability ([3]; Compound I or a pharmaceutically acceptable salt, solvate or hydrate): safe and well tolerated

From patent US20230416210A1, “METHODS OF MAKING A PPAR-DELTA AGONIST” (Reneo Pharmaceuticals, Inc., priority 2020, published 2023)
